Results from patent US5827883A, “Dermatological use of vitamin D derivatives” (priority 1995, dated 1998).
Where two headings read alike, the source gives them in different places.

Columns and labels:
[1] = Calcium liability (tolerance test in mice); conditions: mouse, in vivo, sc
Text: This routine test gives a global picture of calcemic liability. Profound changes in calcium homeostasis strongly affect the weight development of the animals. This parameter was used as a primary test for tolerance. Mice (25-30 g body weight.) received daily subcutaneous administrations of the vitamin D derivative for 4 consecutive days. Body weight was registered just before and at the end of a 5 day treatment period.

human VDR = target: T1, human VDR (Homo sapiens, UniProt P11473); experiment: VDR activation (transcription activation assay; COS cells cotransfected with human VDR and VDRE3-luciferase reporter); assay type: cell-based; conditions: human VDR (pSG5), VDRE3 rat osteocalcin / tk promoter / luciferase reporter, concentration giving half-maximal activity (8-10 fold luciferase induction), read-out: Vitamin D Receptor Activation ED50
T1 construct: expressed in transfected cells; host or cells: COS cells
T1 sequence (P11473 1-427): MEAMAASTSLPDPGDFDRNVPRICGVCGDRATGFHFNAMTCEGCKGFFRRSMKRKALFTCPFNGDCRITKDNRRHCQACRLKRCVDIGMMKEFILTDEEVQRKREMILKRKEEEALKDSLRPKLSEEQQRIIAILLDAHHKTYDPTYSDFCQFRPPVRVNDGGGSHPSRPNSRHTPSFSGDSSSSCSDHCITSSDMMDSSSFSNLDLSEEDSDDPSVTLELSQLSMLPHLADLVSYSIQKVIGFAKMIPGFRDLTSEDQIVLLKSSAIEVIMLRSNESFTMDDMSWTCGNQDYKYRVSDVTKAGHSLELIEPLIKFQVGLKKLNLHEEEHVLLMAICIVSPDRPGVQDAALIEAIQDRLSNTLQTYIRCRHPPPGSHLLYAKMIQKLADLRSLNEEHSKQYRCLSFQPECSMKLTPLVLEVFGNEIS
Text: In order to measure the activation of the vitamin D receptor (VDR) by vitamin D analogs in cells a transcription activation assay was used. COS cells were cotransfected with the human VDR (expressed in pSG5) and a reporter gene containing three response elements (VDRE3) from the rat osteocalcin gene, the thymidine kinase basal promoter, and the luciferase reporter gene.

[2] = mice 25-30 g, daily subcutaneous administration for 4 consecutive days, body weight before and at end of 5 day treatment period, read-out: HTD in mice (highest tolerated dose, dose which results in zero weight gain)

Row | SMILES | MTD at 120 h [1] [mg/kg] | EC50 (human VDR) [nM] | MTD at 120 h [1, 2] [mg/kg]
1 | C=C1/C(=C\C=C2/CCC[C@]3(C)[C@@H]([C@H](C)COC(=O)C(C)(C)C)CC[C@@H]23)C[C@@H](O)C[C@@H]1O [Example 22, 2,2-Dimethyl-propionic acid (5Z,7E)-(1R,3R)-1,3-dihydroxy-23,24-dinor-9,10-secochola-5,7-dien-22-yl ester] | 9 | 141 | 
2 | C=C1/C(=C\C=C2/CCC[C@]3(C)[C@@H]([C@H](C)COC(=O)C(O)(CC)CC)CC[C@@H]23)C[C@@H](O)C[C@@H]1O [Example 24, 2-Ethyl-2-hydroxy-butyric acid-(5Z,7E)-(1S,3R,20S)-1,3-dihydroxy-20-methyl-9,10-seco-pregna-5,7,10 (19)-trien-21-yl ester] |  | 18 | 2.5
3 | C[C@@H](COC(=O)C(C)(C)O)[C@H]1CC[C@H]2/C(=C/C=C3C[C@@H](O)C[C@H](O)C3)CCC[C@]12C [Example 21, 2-Hydroxy-2-methyl-propionic acid-(7E)-(1R,3R,20R)-1,3-dihydroxy-20-methyl-19-nor-9,10-seco-pregna-5,7-dien-21-yl ester] |  | 0.55 | > 9
4 | C=C1/C(=C\C=C2/CCC[C@]3(C)[C@@H]([C@H](C)C(=O)OCC4(O)CCCCC4)CC[C@@H]23)C[C@@H](O)C[C@@H]1O [Example 9, (5Z,7E)-(1R,3R,20S)-1,3-Dihydroxy-20-methyl-9,10-seco-pregna-5,7,10-trien-21-oic acid 1-hydroxy-cyclohexylmethyl ester] |  | 5.6 | 1
5 | C[C@H](C(=O)OCCC1(O)CCCC1)[C@H]1CC[C@H]2/C(=C/C=C3C[C@@H](O)C[C@H](O)C3)CCC[C@]12C [Example 11, (7E)-(1R,3R,20S)-1,3-Dihydroxy-20-methyl-19-nor-9,10-seco-pregna-5,7-dien-21-oic acid 2-(1-hyddroxy-cyclopentyl)-ethyl ester] |  | 180 | > 6
6 | C[C@H](C(=O)OCC1(O)CCCCCC1)[C@H]1CC[C@H]2/C(=C/C=C3C[C@@H](O)C[C@H](O)C3)CCC[C@]12C [Example 10, (7E)-(1R,3R,20S)-1,3-Dihydroxy-20-methyl-19-nor-9,10-seco-pregna-5,7-dien-21-oic acid 1-hyddroxy-cycloheptylmethyl ester] |  | 31 | > 6
7 | C=C1/C(=C\C=C2/CCC[C@]3(C)[C@@H]([C@@H](C)COC(=O)C(C)(C)C)CC[C@@H]23)C[C@@H](O)C[C@@H]1O [Example 19, 2,2-Dimethyl-propionic acid-(5Z,7E)-(1S,3R,20R)-1,3-dihydroxy-20-methyl-9,10-seco-pregna-5,7,10 (19)-trien-21-yl ester] | > 6 | 0.28 | 
8 | C=C1/C(=C\C=C2/CCC[C@]3(C)[C@@H]([C@H](C)COC(=O)CC(C)(O)CC)CC[C@@H]23)C[C@@H](O)C[C@@H]1O (mixture of isomers) [Example 29, 1:1 Mixture of (R)-and-(S)-3-hydroxy-3-methyl-pentanoic acid-(5Z,7E)-(1S,3R,20S)-1,3-dihydroxy-20-methyl-9,10-seco-pregna-5,7,10 (19)-trien-21-yl ester] | 7 | 2.5 | 
9 | C=C1/C(=C\C=C2/CCC[C@]3(C)[C@@H]([C@@H](C)COC(=O)C(C)(C)O)CC[C@@H]23)C[C@@H](O)C[C@@H]1O [Example 20, 2-Hydroxy-2-methyl-propionic acid-(5Z,7E)-(1S,3R,20R)-1,3-dihydroxy-20-methyl-9,10-seco-pregna-5,7,10 (19)-trien-21-yl ester] | > 10 | 0.82 | 
10 | C=C1/C(=C\C=C2/CCC[C@]3(C)[C@@H]([C@H](C)COC(=O)CC(C)(O)C(F)(F)F)CC[C@@H]23)C[C@@H](O)C[C@@H]1O (stereo partly drawn) [Example 28] |  | 0.53 | 0.5
11 | C[C@H](C(=O)OCC1(O)CCCCC1)[C@H]1CC[C@H]2/C(=C/C=C3C[C@@H](O)C[C@H](O)C3)CCC[C@]12C [Example 8, (7E)-(1R,3R,20S)-1,3-Dihydroxy-20-methyl-19-nor-9,10-seco-pregna-5,7-dien-21-oic acid 1-hydroxy-cyclohexyl methyl ester] |  | 38 | 1
12 | C[C@H](C(=O)OCC1(O)CCCC1)[C@H]1CC[C@H]2/C(=C/C=C3C[C@@H](O)C[C@H](O)C3)CCC[C@]12C [Example 7, (7E)-(1R,3R,20S)-1,3-Dihydroxy-20-methyl-19-nor-9,10-seco-pregna-5,7-dien-21-oic acid 1-hydroxy-cyclopentylmethyl ester] |  | 18 | > 5
13 | C=C1/C(=C\C=C2/CCC[C@]3(C)[C@@H]([C@H](C)CCCC(C)(C)O)CC[C@@H]23)C[C@@H](O)C[C@@H]1O [Calcitriol, calcitriol, reference compound] |  |  | 0.0005
14 | C=C1/C(=C\C=C2/CCC[C@]3(C)[C@@H]([C@H](C)COC(=O)C(C)(C)O)CC[C@@H]23)C[C@@H](O)C[C@@H]1O [Example 23, 2-Hydroxy-2-methyl-propionic acid-(5Z,7E)-(1S,3R,20S)-1,3-dihydroxy-20-methyl-9,10-seco-pregna-5,7,10 (19)-trien-21-yl ester] | > 11 | 83 | 
